System: RADSC-1 cells
Assay: Endothelial-inducing factors: LDL-uptake and endothelial markers of ADSC in subtraction/addition media and with FGFR inhibitor
Assay type: cell-based, rat
Details: for LDL-uptake ability on omission of the factor from EGM2: one week in subtraction EGM2; for LDL-uptake ability in EBM2 supplemented with the factor: one week in addition media
Procedure: RADSC-1 cells were grown in fully or partially supplemented EGM2 and then assayed for LDL-uptake. Each partially supplemented EGM2 is indicated by the omitted factor; for example, “−FGF” denotes EGM2 without FGF2. Experiments were repeated 3 times.
RADSC-1 cells were grown in EGM2, EBM2, or EBM2 supplemented with the indicated factor, and then assayed for LDL-uptake. Experiments were repeated 3 times.
RADSC-1 cells were grown in EGM2 or EBM2 supplemented with FGF2 and vitamin C in the presence or absence of FGFR inhibitor PD173074. The cells were then assayed for LDL-uptake. Red color indicates the presence of LDL, which was in a conjugated form with the red fluorescence dye DiI. RADSC-1 cells were also grown in VEGF/vitamin C-supplemented EBM2 for the purpose of excluding the involvement of VEGF signaling, as PD173074 is known to have a weak inhibitory effect on VEGF receptor. Experiments were repeated 3 times.
EGM2 medium is supplied by the manufacturer in the form of a basal medium (EBM2) and individual vials of supplemental factors. […] Specifically, we prepared “subtraction” EGM2 media by omitting one supplemental factor at a time.
The above experiments identified FGF2 as the only growth factor required for the induction of ADSC's LDL-uptake ability. We then tested whether FGF2 was able to induce the expression of additional endothelial characteristics. RADSC-1 cells were grown in DMEM, EGM2, or EBM2 supplemented with FGF2 and vitamin C. They were then stained for endothelial markers CD31, vWF, and eNOS, and tested for tube formation.
In the absence of PD173074 (with the addition of solvent only), cells grown in either the completely supplemented EGM2 or the FGF2/vitamin C-supplemented EBM2 acquired the LDL-uptake ability (FIG. 23).

Molecule | acquisition of LDL-uptake ability in the presence of inhibitor (cells in EGM2 or FGF2/vitamin C-supplemented EBM2) | LDL-uptake ability on omission of the factor from EGM2 | LDL-uptake ability in EBM2 supplemented with the factor
CCN(CC)CCCCNc1ncc2cc(-c3cc(OC)cc(OC)c3)c(NC(=O)NC(C)(C)C)nc2n1 [PD173074] | unable to do so | – | –
C[C@]12CCC(=O)C=C1CC[C@@H]1[C@@H]2[C@@H](O)C[C@@]2(C)[C@H]1CC[C@]2(O)C(=O)CO [hydrocortisone] | – | essentially no effect | –
O=C1O[C@H]([C@@H](O)CO)C(O)=C1O [vitamin C] | – | greatly diminished LDL-uptake ability | still somewhat effective, but at a much reduced level
EGF: epidermal growth factor, supplement of EGM2 (NSDSECPLSHDGYCLHDGVCMYIEALDKYACNCVVGYIGERCQYRDLKWWELR; UniProt P01133 971-1023, looked up) | – | essentially no effect | –
FGF2: growth factor supplement of EGM2 | – | greatly diminished LDL-uptake ability | still effective, albeit at a reduced level
VEGF | – | essentially no effect | –
heparin | – | essentially no effect | –

From patent publication US20090304654A1, “METHODS FOR ISOLATING ADIPOSE-DERIVED STEM CELLS AND THERAPEUTIC USE THEREOF” (REGENTS OF THE UNIVERSITY OF CALIFORNIA, priority 2008, published 2009)
